Tests used:
[1] = tested on: S. aureus engineered with murB antisense
[2] = tested on: MetRS antisense clones; assay type: cell-based, B. anthracis
[3] = tested on: B. anthracis murB-2 antisense strain

SMILES	IC50 shift (sensitivity), antibiotic panel [1] [fold]	difference in sensitivity with and without inducer [2]	IC50 shift [3]	IC50 shift [1]
CO/N=C(\C(=O)N[C@@H]1C(=O)N2C(C(=O)[O-])=C(C[N+]3(C)CCCC3)CS[C@H]12)c1csc(N)n1 [cefepime]	≥ 4			
CO/N=C(\C(=O)N[C@@H]1C(=O)N2C(C(=O)O)=C(COC(C)=O)CS[C@H]12)c1csc(N)n1 [cefotaxime]	≥ 4	no difference in sensitivity	343	
CO[C@@]1(NC(=O)Cc2cccs2)C(=O)N2C(C(=O)O)=C(COC(N)=O)CS[C@@H]21 [cefoxitin]	≥ 4			7.8
Cc1nnc(SCC2=C(C(=O)O)N3C(=O)[C@@H](NC(=O)Cn4cnnn4)[C@H]3SC2)s1 [cefozolin]	≥ 4			
CO/N=C(\C(=O)N[C@@H]1C(=O)N2C(C(=O)O)=C(CSc3nc(=O)c(=O)[nH]n3C)CS[C@H]12)c1csc(N)n1 [ceftriaxone]	≥ 4			
Cc1onc(-c2c(Cl)cccc2Cl)c1C(=O)N[C@@H]1C(=O)N2[C@@H]1SC(C)(C)[C@@H]2C(=O)O [dicloxacillin]	≥ 4			5.8
Cc1onc(-c2ccccc2)c1C(=O)N[C@@H]1C(=O)N2[C@@H]1SC(C)(C)[C@@H]2C(=O)O [oxacillin]	≥ 4			
CCN1CCN(C(=O)N[C@@H](C(=O)N[C@@H]2C(=O)N3[C@@H]2SC(C)(C)[C@@H]3C(=O)O)c2ccccc2)C(=O)C1=O [pipericillin]	≥ 4			

Source: patent US7910337B2, “Method for identifying drug-sensitizing antisense DNA fragments and use thereof” (priority 2006, dated 2011)
